In ChEMBL document CHEMBL5291721, “A preclinical secondary pharmacology resource illuminates target-adverse drug reaction associations of marketed drugs” (Nat Commun, 2023):

Experiments:
Adenosine receptor A3 = target: T1, Adenosine receptor A3 (Homo sapiens, UniProt P0DMS8)
T1 sequence (P0DMS8 whole entry): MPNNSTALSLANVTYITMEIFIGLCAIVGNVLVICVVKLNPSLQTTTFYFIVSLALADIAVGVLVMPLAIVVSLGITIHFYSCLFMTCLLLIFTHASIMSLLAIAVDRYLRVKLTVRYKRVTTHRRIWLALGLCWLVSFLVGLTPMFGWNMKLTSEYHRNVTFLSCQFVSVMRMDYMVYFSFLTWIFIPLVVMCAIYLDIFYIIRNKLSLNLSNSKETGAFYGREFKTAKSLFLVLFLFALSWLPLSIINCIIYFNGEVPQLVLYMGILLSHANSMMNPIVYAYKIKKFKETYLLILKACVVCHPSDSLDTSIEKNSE

[1] = target: 3',5'-cyclic-AMP phosphodiesterase 4A (Homo sapiens, UniProt P27815); format: functional
Sequence of 3',5'-cyclic-AMP phosphodiesterase 4A (P27815 whole entry): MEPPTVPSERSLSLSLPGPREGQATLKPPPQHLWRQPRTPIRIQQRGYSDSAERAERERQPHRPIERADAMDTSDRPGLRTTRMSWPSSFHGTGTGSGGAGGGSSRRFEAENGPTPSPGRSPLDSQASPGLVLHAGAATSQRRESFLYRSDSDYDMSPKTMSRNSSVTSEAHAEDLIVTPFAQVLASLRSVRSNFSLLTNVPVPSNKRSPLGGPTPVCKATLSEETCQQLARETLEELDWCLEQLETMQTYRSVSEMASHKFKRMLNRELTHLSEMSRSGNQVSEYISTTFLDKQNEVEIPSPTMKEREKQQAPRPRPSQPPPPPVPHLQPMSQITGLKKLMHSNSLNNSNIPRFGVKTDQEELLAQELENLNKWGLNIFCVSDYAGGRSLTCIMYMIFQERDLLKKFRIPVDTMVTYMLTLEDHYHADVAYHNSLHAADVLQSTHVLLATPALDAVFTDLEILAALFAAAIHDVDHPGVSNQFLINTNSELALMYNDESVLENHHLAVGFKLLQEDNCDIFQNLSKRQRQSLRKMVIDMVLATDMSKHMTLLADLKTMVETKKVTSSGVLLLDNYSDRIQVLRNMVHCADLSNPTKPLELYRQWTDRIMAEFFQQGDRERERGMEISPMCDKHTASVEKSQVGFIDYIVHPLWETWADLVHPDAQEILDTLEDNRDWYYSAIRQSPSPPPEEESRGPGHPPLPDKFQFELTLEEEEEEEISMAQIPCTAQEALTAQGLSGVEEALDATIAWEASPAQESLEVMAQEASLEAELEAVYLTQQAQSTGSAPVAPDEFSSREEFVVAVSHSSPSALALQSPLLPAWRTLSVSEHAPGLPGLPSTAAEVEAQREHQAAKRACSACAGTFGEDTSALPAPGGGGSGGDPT

[2] = target: Sodium-dependent serotonin transporter (Homo sapiens, UniProt P31645)
Sequence of Sodium-dependent serotonin transporter (P31645 whole entry): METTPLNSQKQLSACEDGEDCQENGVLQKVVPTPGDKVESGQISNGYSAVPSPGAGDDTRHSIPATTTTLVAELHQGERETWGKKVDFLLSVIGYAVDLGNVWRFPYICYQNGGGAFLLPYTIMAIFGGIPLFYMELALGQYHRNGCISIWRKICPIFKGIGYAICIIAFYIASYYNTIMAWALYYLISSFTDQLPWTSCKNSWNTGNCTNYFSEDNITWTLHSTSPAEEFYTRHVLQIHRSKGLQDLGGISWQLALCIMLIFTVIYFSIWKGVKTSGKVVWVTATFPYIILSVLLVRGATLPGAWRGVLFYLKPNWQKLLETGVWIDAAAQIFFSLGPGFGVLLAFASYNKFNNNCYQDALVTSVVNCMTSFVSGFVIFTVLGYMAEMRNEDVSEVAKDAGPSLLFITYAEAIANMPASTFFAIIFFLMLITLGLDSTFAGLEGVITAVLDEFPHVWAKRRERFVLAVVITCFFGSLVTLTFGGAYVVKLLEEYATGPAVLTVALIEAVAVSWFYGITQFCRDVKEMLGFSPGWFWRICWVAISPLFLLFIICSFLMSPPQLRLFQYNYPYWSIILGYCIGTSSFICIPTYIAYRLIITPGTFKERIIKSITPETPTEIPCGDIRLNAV

[3] = target: Muscarinic acetylcholine receptor M3 (Homo sapiens, UniProt P20309)
Sequence of Muscarinic acetylcholine receptor M3 (P20309 whole entry): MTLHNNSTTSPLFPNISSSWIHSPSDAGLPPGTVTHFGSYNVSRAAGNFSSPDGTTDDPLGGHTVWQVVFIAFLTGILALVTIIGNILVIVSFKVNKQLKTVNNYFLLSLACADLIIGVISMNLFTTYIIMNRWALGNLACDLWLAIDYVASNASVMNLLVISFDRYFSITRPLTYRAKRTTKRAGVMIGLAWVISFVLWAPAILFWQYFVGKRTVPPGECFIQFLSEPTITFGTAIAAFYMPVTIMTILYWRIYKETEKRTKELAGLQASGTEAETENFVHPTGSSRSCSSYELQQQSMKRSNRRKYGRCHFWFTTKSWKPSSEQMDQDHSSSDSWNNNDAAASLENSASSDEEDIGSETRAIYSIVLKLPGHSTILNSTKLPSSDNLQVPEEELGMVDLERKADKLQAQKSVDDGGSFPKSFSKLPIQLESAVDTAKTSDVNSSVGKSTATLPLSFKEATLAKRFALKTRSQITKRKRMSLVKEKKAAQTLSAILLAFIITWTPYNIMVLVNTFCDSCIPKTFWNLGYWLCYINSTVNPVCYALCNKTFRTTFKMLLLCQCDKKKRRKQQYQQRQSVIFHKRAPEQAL

[4] = target: T2, 5-hydroxytryptamine receptor 1A (Homo sapiens, UniProt P08908)
T2 sequence (P08908 whole entry): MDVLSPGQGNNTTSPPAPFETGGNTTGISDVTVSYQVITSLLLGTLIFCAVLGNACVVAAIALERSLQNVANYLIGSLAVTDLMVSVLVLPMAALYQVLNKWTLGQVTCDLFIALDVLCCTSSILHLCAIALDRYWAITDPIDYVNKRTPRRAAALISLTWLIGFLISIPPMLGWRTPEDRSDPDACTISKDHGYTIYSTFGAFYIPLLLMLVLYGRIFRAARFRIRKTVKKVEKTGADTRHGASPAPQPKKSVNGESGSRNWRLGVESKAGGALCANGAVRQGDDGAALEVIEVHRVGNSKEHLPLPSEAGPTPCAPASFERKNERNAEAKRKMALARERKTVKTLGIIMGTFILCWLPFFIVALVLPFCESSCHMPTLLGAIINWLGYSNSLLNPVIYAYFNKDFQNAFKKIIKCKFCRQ

[5] = target: Gamma-aminobutyric acid receptor subunit alpha-1/alpha-2/beta-2/gamma-2 (Homo sapiens, UniProt P14867+P18507+P47869+P47870); format: protein-complex assay
Sequence of Gamma-aminobutyric acid receptor subunit alpha-1/alpha-2/beta-2/gamma-2 (P14867 whole entry): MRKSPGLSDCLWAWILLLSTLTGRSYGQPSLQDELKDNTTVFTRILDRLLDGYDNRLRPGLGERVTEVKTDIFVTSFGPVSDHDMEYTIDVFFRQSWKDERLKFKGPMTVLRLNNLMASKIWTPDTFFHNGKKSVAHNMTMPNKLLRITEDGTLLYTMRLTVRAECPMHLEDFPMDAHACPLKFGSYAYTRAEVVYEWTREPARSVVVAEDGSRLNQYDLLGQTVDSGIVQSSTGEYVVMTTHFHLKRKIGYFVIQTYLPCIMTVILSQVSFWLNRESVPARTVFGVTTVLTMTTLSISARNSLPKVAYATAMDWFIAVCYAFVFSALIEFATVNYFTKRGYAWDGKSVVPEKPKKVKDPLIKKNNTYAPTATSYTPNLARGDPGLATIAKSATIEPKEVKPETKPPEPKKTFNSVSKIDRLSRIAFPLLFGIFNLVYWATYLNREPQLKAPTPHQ
Sequence of Gamma-aminobutyric acid receptor subunit alpha-1/alpha-2/beta-2/gamma-2 (P47870 whole entry): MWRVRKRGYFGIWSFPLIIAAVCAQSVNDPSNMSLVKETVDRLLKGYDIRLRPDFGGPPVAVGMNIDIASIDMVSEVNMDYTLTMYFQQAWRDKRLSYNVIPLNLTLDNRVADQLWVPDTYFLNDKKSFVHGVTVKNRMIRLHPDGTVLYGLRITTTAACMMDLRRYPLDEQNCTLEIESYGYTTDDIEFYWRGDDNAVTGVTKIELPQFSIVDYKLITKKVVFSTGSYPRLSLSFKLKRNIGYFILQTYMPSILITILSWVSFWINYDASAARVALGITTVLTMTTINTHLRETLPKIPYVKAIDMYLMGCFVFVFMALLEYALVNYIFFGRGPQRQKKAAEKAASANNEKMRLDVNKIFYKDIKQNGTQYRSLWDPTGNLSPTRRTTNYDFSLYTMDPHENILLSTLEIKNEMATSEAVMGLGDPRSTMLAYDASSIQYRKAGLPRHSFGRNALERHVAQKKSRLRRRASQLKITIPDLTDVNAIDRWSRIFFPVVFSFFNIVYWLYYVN
Sequence of Gamma-aminobutyric acid receptor subunit alpha-1/alpha-2/beta-2/gamma-2 (P18507 whole entry): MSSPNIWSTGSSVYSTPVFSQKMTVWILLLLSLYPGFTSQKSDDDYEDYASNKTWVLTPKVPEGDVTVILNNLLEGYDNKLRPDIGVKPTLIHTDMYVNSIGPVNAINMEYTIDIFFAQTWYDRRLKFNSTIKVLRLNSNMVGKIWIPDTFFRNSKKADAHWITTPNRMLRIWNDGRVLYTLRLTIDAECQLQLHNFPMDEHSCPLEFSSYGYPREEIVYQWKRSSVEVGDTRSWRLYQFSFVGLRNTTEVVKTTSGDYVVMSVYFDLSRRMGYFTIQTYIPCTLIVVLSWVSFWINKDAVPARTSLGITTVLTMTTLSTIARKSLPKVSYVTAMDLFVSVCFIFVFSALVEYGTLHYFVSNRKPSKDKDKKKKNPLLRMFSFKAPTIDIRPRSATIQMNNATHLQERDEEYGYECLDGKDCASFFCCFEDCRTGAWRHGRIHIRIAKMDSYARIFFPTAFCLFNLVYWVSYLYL
Sequence of Gamma-aminobutyric acid receptor subunit alpha-1/alpha-2/beta-2/gamma-2 (P47869 whole entry): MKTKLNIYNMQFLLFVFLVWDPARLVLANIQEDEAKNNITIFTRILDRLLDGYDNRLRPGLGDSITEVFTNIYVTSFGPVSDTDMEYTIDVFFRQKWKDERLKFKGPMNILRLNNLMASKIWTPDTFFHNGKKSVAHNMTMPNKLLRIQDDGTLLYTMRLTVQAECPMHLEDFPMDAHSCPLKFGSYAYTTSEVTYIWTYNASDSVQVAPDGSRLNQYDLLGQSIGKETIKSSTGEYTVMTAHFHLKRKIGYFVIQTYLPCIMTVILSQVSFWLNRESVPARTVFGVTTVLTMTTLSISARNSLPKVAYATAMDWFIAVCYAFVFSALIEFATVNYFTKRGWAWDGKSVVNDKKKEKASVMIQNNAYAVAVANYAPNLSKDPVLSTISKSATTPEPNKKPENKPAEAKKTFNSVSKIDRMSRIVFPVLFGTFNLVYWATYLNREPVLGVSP
Also: assay procedure not described here.

NCC(CC(=O)O)c1ccccc1 (configuration not stated) [PHENIBUT]
AC50 (Adenosine receptor A3): > 30 µM | AC50 [1]: > 30 µM | AC50 [2]: > 30 µM

CCC(C)C(CC)C(N)=O (configuration not stated) [VALNOCTAMIDE]
AC50 [3]: > 30 µM

CCCN[C@H]1CCc2nc(N)sc2C1 [PRAMIPEXOLE]
AC50 [3]: > 30 µM | AC50 [4]: 10.5 µM

COc1ccc(CN(CCN(C)C)c2ccccn2)cc1 [PYRILAMINE]
AC50 (Adenosine receptor A3): > 30 µM | AC50 [1]: > 30 µM

C=CCSCC1Nc2cc(Cl)c(S(N)(=O)=O)cc2S(=O)(=O)N1 (configuration not stated) [ALTHIAZIDE]
AC50 (Adenosine receptor A3): > 30 µM | AC50 [1]: > 30 µM | AC50 [2]: > 30 µM

CC(C)[C@H](N)C(=O)OCC(CO)OCn1cnc2c(=O)nc(N)[nH]c21 (some centres not stated) [VALGANCICLOVIR]
AC50 [3]: > 30 µM

NC(=O)OCC(O)COc1ccc(Cl)cc1 (configuration not stated) [CHLORPHENESIN CARBAMATE]
AC50 (Adenosine receptor A3): > 30 µM | AC50 [1]: > 30 µM | AC50 [2]: > 30 µM

C[C@H](Cc1cc2c(c(C(N)=O)c1)N(CCCO)CC2)NCCOc1ccccc1OCC(F)(F)F [SILODOSIN]
AC50 (Adenosine receptor A3): > 30 µM | AC50 [5]: > 30 µM | AC50 [1]: > 30 µM | AC50 [2]: > 30 µM

Cc1cc(C(C)(C)C)cc(C)c1CC1=NCCN1 [XYLOMETAZOLINE]
AC50 [3]: 10 µM

CCOC(=O)C1=C[C@]2(CC)CCCN3CCc4c(n1c1ccccc41)[C@@H]32 [VINPOCETINE]
AC50 [3]: > 30 µM

C=C1CC[C@H](O)C/C1=C/C=C1\CCC[C@]2(C)[C@@H]([C@H](C)/C=C/[C@H](C)C(C)C)CC[C@@H]12 [ERGOCALCIFEROL]
AC50 [1]: > 30 µM

CC(C(=O)O)c1ccc(-c2ccccc2)c(F)c1 (configuration not stated) [FLURBIPROFEN]
AC50 (Adenosine receptor A3): > 30 µM | AC50 [1]: > 30 µM

CCN(CC)C(=S)S [DITIOCARB]
AC50 [1]: > 30 µM | AC50 [2]: > 30 µM

CC(N)Cc1ccc(O)cc1 (configuration not stated) [HYDROXYAMPHETAMINE]
AC50 (Adenosine receptor A3): > 30 µM | AC50 [1]: > 30 µM | AC50 [2]: > 30 µM

CCCC(CCC)C(N)=O [VALPROMIDE]
AC50 [3]: > 30 µM | AC50 [4]: > 10 µM

C/N=C(\NC)NCc1ccccc1 [BETHANIDINE]
AC50 [3]: > 30 µM

CCOC(=O)[C@H](CCc1ccccc1)N[C@@H](C)C(=O)N(CC(=O)O)C1Cc2ccccc2C1
AC50 (Adenosine receptor A3): > 30 µM | AC50 [1]: > 30 µM | AC50 [2]: > 30 µM

Clc1ccc(C(Cn2ccnc2)OCc2ccsc2Cl)c(Cl)c1 (configuration not stated) [TIOCONAZOLE]
AC50 [3]: 26 µM

COc1cc(N)c(Cl)cc1C(=O)NC1CCN(Cc2ccccc2)CC1 [CLEBOPRIDE]
AC50 [3]: > 30 µM

CCC1(c2ccccc2)CCC(=O)NC1=O (configuration not stated) [GLUTETHIMIDE]
AC50 [3]: > 30 µM

Nc1ncn([C@H]2C[C@H](O)[C@@H](CO)O2)c(=O)n1 [DECITABINE]
AC50 [3]: > 30 µM

CN1C(=O)/C(=N\NC(N)=S)c2ccccc21 [METHISAZONE]
AC50 (Adenosine receptor A3): 13.9 µM | AC50 [1]: > 30 µM | AC50 [2]: > 30 µM

CC(C)(C)NC[C@H](O)COc1cccc2c1CCCC2=O [LEVOBUNOLOL]
AC50 (Adenosine receptor A3): > 30 µM | AC50 [5]: > 30 µM | AC50 [1]: > 30 µM

CC(=O)N[C@@H](CS)C(=O)O [ACETYLCYSTEINE]
AC50 [3]: > 30 µM

Cc1cc(NC(=O)C2=C(O)c3ccccc3S(=O)(=O)N2C)no1 [ISOXICAM]
AC50 (Adenosine receptor A3): > 30 µM | AC50 [1]: > 30 µM | AC50 [2]: > 30 µM

O=[N+]([O-])c1ccc(O)c2ncccc12 [NITROXOLINE]
AC50 [3]: 7.6 µM | AC50 [1]: > 30 µM | AC50 [2]: > 30 µM

COCC1=C(C(=O)O)N2C(=O)[C@@H](NC(=O)/C(=N\OC)c3csc(N)n3)[C@H]2SC1 [CEFPODOXIME]
AC50 [3]: > 30 µM

CCOC(=O)c1cncn1[C@H](C)c1ccccc1 [ETOMIDATE]
AC50 [3]: > 30 µM

C[C@]12CCC(=O)C(O)=C1CC[C@@H]1[C@@H]2CC[C@]2(C)C(=O)CC[C@@H]12 [FORMESTANE]
AC50 [3]: > 30 µM

CCC(=O)O[C@H]1CC[C@H]2[C@@H]3CCC4=CC(=O)CC[C@]4(C)[C@H]3CC[C@]12C [TESTOSTERONE PROPIONATE]
AC50 [3]: > 10 µM

Oc1ccc2c(c1)CC[C@H](c1ccccc1)[C@@H]2c1ccc(OCCN2CCCC2)cc1 [LASOFOXIFENE]
AC50 [3]: 11 µM

Cc1cc(N)c2ccccc2[n+]1CCCCCCCCCC[n+]1c(C)cc(N)c2ccccc21
AC50 (Adenosine receptor A3): 8.73 µM | AC50 [1]: 3.16 µM | AC50 [2]: 0.185 µM

Cc1ccccc1N1CCN(CCc2nnc3n2CCCC3)CC1 [DAPIPRAZOLE]
AC50 (Adenosine receptor A3): > 30 µM | AC50 [5]: > 30 µM | AC50 [1]: > 30 µM

CCCCC(=O)O[C@]1(C(=O)CO)[C@@H](C)C[C@H]2[C@@H]3CCC4=CC(=O)C=C[C@]4(C)[C@@]3(F)[C@@H](O)C[C@@]21C [BETAMETHASONE VALERATE]
AC50 [3]: > 30 µM | AC50 [4]: > 10 µM

C[C@]12CC[C@@H]3c4ccc(O)cc4C[C@@H](CCCCCCCCC[S+]([O-])CCCC(F)(F)C(F)(F)F)[C@H]3[C@@H]1CC[C@@H]2O (some centres not stated) [FULVESTRANT]
AC50 [3]: > 30 µM

COc1cc2c(cc1OC)CC(=O)N(CCCN(C)C[C@H]1Cc3cc(OC)c(OC)cc31)CC2 [IVABRADINE]
AC50 (Adenosine receptor A3): > 30 µM | AC50 [1]: > 30 µM | AC50 [2]: 11.9 µM

CC[C@@H]([C@H](C)O)n1ncn(-c2ccc(N3CCN(c4ccc(OC[C@@H]5CO[C@@](Cn6cncn6)(c6ccc(F)cc6F)C5)cc4)CC3)cc2)c1=O [POSACONAZOLE]
AC50 [1]: > 30 µM

CNC1=Nc2ccc(Cl)cc2C(c2ccccc2)=[N+]([O-])C1 [CHLORDIAZEPOXIDE]
AC50 [4]: > 10 µM

CCC[C@H](NC(=O)[C@@H]1[C@H]2CCC[C@H]2CN1C(=O)[C@@H](NC(=O)[C@@H](NC(=O)c1cnccn1)C1CCCCC1)C(C)(C)C)C(=O)C(=O)NC1CC1
AC50 [3]: > 30 µM | AC50 [4]: > 10 µM

CN(C)CCCNc1c2ccccc2nc2cccc([N+](=O)[O-])c12 [NITRACRINE]
AC50 [3]: 19 µM

CC(C)(C)C(=O)OCC(=O)[C@H]1CC[C@H]2[C@@H]3CCC4=CC(=O)CC[C@]4(C)[C@H]3CC[C@]12C [DESOXYCORTICOSTERONE PIVALATE]
AC50 [3]: > 30 µM

C=CCNc1nc(NCC=C)nc(N2CCN(C(c3ccc(F)cc3)c3ccc(F)cc3)CC2)n1 [ALMITRINE]
AC50 [3]: > 30 µM

Clc1ccc2c(N3CCN(CCCN4CCN(c5ccnc6cc(Cl)ccc56)CC4)CC3)ccnc2c1 [PIPERAQUINE]
AC50 [3]: > 30 µM

COC(=O)c1ccc(O)cc1 [METHYLPARABEN]
AC50 (Adenosine receptor A3): > 30 µM | AC50 [5]: > 30 µM | AC50 [1]: > 30 µM

CN1CCC(=C2c3ccccc3CCc3cccnc32)CC1 [AZATADINE]
AC50 [3]: > 30 µM | AC50 [4]: 5.69 µM

CN(C)CCOC(c1ccccc1)c1ccc(Br)cc1 (configuration not stated) [BROMODIPHENHYDRAMINE]
AC50 (Adenosine receptor A3): > 30 µM | AC50 [1]: > 30 µM | AC50 [2]: 0.207 µM

CC1OC2(CS1)CN1CCC2CC1 (configuration not stated) [CEVIMELINE]
AC50 [3]: > 30 µM

COc1cc(N2CCC(N3CCN(C)CC3)CC2)ccc1Nc1ncc(Cl)c(Nc2ccccc2P(C)(C)=O)n1 [BRIGATINIB]
AC50 (Adenosine receptor A3): > 30 µM | AC50 [1]: > 30 µM | AC50 [2]: > 30 µM

Cc1cccc(N2CC(CO)OC2=O)c1 (configuration not stated) [TOLOXATONE]
AC50 [3]: > 30 µM

CC1(C)S[C@@H]2[C@H](NC(=O)[C@H](N)c3ccccc3)C(=O)N2[C@H]1C(=O)OCOC(=O)[C@@H]1N2C(=O)C[C@H]2S(=O)(=O)C1(C)C [SULTAMICILLIN]
AC50 [3]: > 30 µM

Cc1c(N(C)CS(=O)(=O)O)c(=O)n(-c2ccccc2)n1C [METAMIZOLE]
AC50 (Adenosine receptor A3): > 30 µM | AC50 [5]: > 30 µM | AC50 [1]: > 30 µM

CC(=O)O[C@]1(C(C)=O)CC[C@H]2[C@@H]3C=C(Cl)C4=CC(=O)CC[C@]4(C)[C@H]3CC[C@@]21C [CHLORMADINONE ACETATE]
AC50 (Adenosine receptor A3): 21 µM | AC50 [1]: > 30 µM

C[C@H](Cc1ccc(O)c(O)c1)[C@@H](C)Cc1ccc(O)c(O)c1 [MASOPROCOL]
AC50 [3]: > 30 µM
